Reference: the NIST ThermoML archive (doi:10.1021/acs.jced.8b00125)
Numbers after ± are expanded uncertainties.

Conditions: Liquid, Closed cell (Static) method

Compound | vapor or sublimation pressure (303.15 K) | vapor or sublimation pressure (313.15 K) | vapor or sublimation pressure (323.15 K) | vapor or sublimation pressure (333.15 K) | vapor or sublimation pressure (343.15 K) | vapor or sublimation pressure (353.15 K) | vapor or sublimation pressure (363.15 K) | vapor or sublimation pressure (373.15 K) | vapor or sublimation pressure (383.15 K) | vapor or sublimation pressure (393.15 K)
C1CCCCC1 [cyclohexane] | 16.4 ± 1 kPa | 24.7 ± 1 kPa | 36.4 ± 1 kPa | 52 ± 1.1 kPa | 72.5 ± 1.1 kPa | – | – | – | – | –
CCCCCCCCCC [decane] | 0.2 kPa | 0.6 ± 1 kPa | 1 ± 1 kPa | 1.7 ± 1 kPa | 2.7 ± 1 kPa | 4.3 ± 1 kPa | 6.6 ± 1 kPa | 9.9 ± 1 kPa | 14.4 ± 1 kPa | 20.6 ± 1 kPa
CCCCCCCCCCCC [dodecane] | – | – | – | – | 0.4 kPa | 0.7 ± 1 kPa | 1.2 ± 1 kPa | 2 ± 1 kPa | 3.2 ± 1 kPa | 4.9 ± 1 kPa
CCCCCCC [heptane] | 7.9 ± 1 kPa | 12.4 ± 1 kPa | 19 ± 1 kPa | 28.2 ± 1 kPa | 40.6 ± 1 kPa | 57.1 ± 1.1 kPa | – | – | – | –

Other lines, results leading:

vapor or sublimation pressure (303.15 K) | vapor or sublimation pressure (313.15 K) | vapor or sublimation pressure (323.15 K) | vapor or sublimation pressure (333.15 K) | vapor or sublimation pressure (343.15 K) | vapor or sublimation pressure (353.15 K) | vapor or sublimation pressure (363.15 K) | vapor or sublimation pressure (373.15 K) | vapor or sublimation pressure (383.15 K) | vapor or sublimation pressure (393.15 K) | Compound
2.1 ± 1 kPa | 3.7 ± 1 kPa | 6 ± 1 kPa | 9.3 ± 1 kPa | 13.9 ± 1 kPa | 20.4 ± 1 kPa | 28.9 ± 1 kPa | 40.3 ± 1 kPa | 54.8 ± 1.1 kPa | 73.2 ± 1.1 kPa | CCC1CCCCC1 [ethylcyclohexane]
7.9 ± 1 kPa | 12.3 ± 1 kPa | 18.5 ± 1 kPa | 27.1 ± 1 kPa | 38.7 ± 1 kPa | 53.8 ± 1.1 kPa | 73.3 ± 1.1 kPa | – | – | – | CC1CCCCC1 [methylcyclohexane]
